What was measured:
APCΔ14 mice = assay: siRNA treatment of APCΔ14 mice (spontaneous intestinal tumorigenesis); format: in vivo, mouse
Protocol: (§1) APCΔ14 mice were housed in conventional conditions, and randomized in two groups. The first group (n=9), was treated once daily by intraperitoneal administration of 250 μg/kg siRNA against the murine GAST mRNA. Control mice (n=9) were treated with a similar dose of siRNA against Luciferase. (siRNA sequence on FIG. S7 online). […] Adenoma scoring in the intestine and colon was described in (Colnot et al., 2004). Samples of healthy intestinal mucosa, as well as intestinal and colon adenomas, were fixed in 4% PFA and paraffin-embedded, or frozen in liquid nitrogen, for Western blotting, IHC or RNA extraction. Plasma was prepared and assayed for IL-6 and TNFα using the FACSarray system (Becton Dickinson).

[1] = tested on: Colo-26 murine CRC cells and Young adult mouse colon (YAMC) cells; assay: GAST mRNA after siRNA transfection of murine cells (RT-QPCR); format: cell-based; settings: mouse cells (FIG. S1)
[2] = Plasma IL-6 and TNFα in siRNA-treated APCΔ14 mice; format: in vivo, mouse; settings: two-week treatment, GAST siRNA versus Luc siRNA
Protocol: as §1

siRNA directed against the murine GAST gene: siRNA against the murine GAST mRNA; siRNAs mPG sense 5′-GAAGAGGCCUACGGAUGGTT-3′ (SEQ ID No 29), antisense SEQ ID No 30 (antisense CCAUCCGUAGGCCUCUUCTT; chemistry not given here)
ICAT expression in adenomas (APCΔ14 mice; APCΔ14 mice treated with siRNA): significantly increased | expression of Tcf-4 target genes in adenomas (APCΔ14 mice; APCΔ14 mice treated with siRNA): strong repression | number of cells staining for activated caspase 3 in adenomas (APCΔ14 mice; APCΔ14 mice treated with siRNA, immunohistochemistry): strongly elevated | Muc-2 and Alcian-blue positive cells in remaining small intestinal and colonic adenomas (APCΔ14 mice; APCΔ14 mice treated with siRNA, immunohistochemistry, compared to controls): greatly increased numbers | decrease in the total number of intestinal tumors (APCΔ14 mice; APCΔ14 mice, 250 μg/kg siRNA intraperitoneal once daily for two weeks, compared to Luciferase siRNA control animals): 20% | reduction in tumor size in the colon (APCΔ14 mice; APCΔ14 mice, daily siRNA for two weeks, colon, Fischer's exact test p=0.228): not reaching significance | GAST gene and progastrin expression in intestinal adenomas (APCΔ14 mice; APCΔ14 mice, daily siRNA for two weeks, compared to Luciferase-specific siRNA): reduction | tumor size in the intestine (APCΔ14 mice; APCΔ14 mice, daily siRNA for two weeks, compared to controls, Chi-square p<0.0001, n=9 per group): significant reduction | reduction in tumor size in the ileum (APCΔ14 mice; APCΔ14 mice, daily siRNA for two weeks, ileum): particularly marked | down-regulation of GAST in mouse cells [1]: effective | levels of plasma IL-6 and TNFα (proinflammatory response) [2]: No significant differences
